Experiment: in vivo
Settings: rat, brain/plasma, po, 1600 mg/kg

Row | Kp at 2 h | SMILES
1 | 0.25 | O=C(CN1CCNCC1)NC1CCCCC1 [ESAPRAZOLE]

Experiment: in vitro
Settings: rat, liver microsomes

Row | SMILES | half-life
2 | O=C(CCN1C[C@@H]2C[C@H]1CN2)NC1CCCCC1 | 45 min
3 | CC(C)(C)CCNC(=O)CN1CCN(C(=O)C2CCCCC2)CC1 | 21 min
4 | CCN1CCN(CC(=O)N(C)C2CCCC2)CC1C (racemic) | 21 min

Continued, values first:

Row | half-life | SMILES
5 | 4.2 min | O=C(CN1CCN2CCC[C@H]2C1)NC1CCCCC1
6 | 8.2 min | O=C(CN1CCN2CCC[C@@H]2C1)NC1CCCCC1
7 | > 60 min | O=C(CCN1CCN(C(=O)C2CC2)CC1)NC1CCCCC1
8 | > 60 min | O=C(CN1CCNCC1)NC1CCCCC1 [ESAPRAZOLE]
